# Laboratory results reported in patent US20030217378A1, “Cloning using rapidly matured oocytes” (The University of Georgia Research Foundation, Inc, priority 2002, published 2003).
# Several values for one entry are separate records, joined by “and”; a condition that tells them apart may be missing. Equal entries are not always repeated.
# Tests used:
# Type in all cases: cell-based
# [1] = system: porcine oocytes; experiment: Experiment 1: meiotic resumption of porcine oocytes cultured in maturation medium with 1 mM dbcAMP
# Experimental: (§1) Ovaries were collected from prepubertal gilts at a local slaughterhouse and transported to the laboratory at 30-35° C. Antral follicles (2-5 mm in diameter) were aspirated with an 18-gauge needle using vacuum suction (40 mm Hg). […] Oocytes were cultured in 4-well plates (Nunc, Roskilde, Denmark) containing 500 μl of each medium. TCM-199 (Gibco) supplemented with 3.05 mM D-glucose, 0.91 mM Na-pyruvate, 0.57 mM cysteine, 10 ng/ml epidermal growth factor (Sigma), 10 IU/ml eCG (Sioux Biochemicals, Sioux Center, Iowa), 10 IU/ml hCG (Intervet, Millsboro, Del.), and 10% (v:v) porcine follicular fluid was used as a basic maturation medium.
# After culture for each period, degenerated oocytes with lysed cytoplasmic membranes were removed.
# [2] = system: porcine oocytes; experiment: Experiment 2: maturation to metaphase II of porcine oocytes treated with dbcAMP for 20 h, then cultured without dbcAMP; details: 1 mM dbcAMP for 20 h
# Experimental: as §1
# Oocytes continued to be cultured for additional 4, 10, 16, and 22 h and examined for meiotic progression to the M II stage by staining with 5 μg/ml Hoechst 33342.
# [3] = system: porcine embryos reconstituted with 42-h-matured oocytes; experiment: Experiment 5: in vitro development of porcine nuclear transfer embryos reconstituted with 42-h-matured oocytes treated with dbcAMP
# Experimental: as §1
# At the end of maturation, cumulus cells were removed by vortexing with 0.1% (w:v) hyaluronidase (Sigma) and denuded oocytes were transferred into 100 μl of Hepes-buffered TCM-199 with the osmolarity adjusted to 300 mOsm by adding sorbitol supplemented with 7.5 μg/ml cytochalasin B (Sigma) and 10% FCS (manipulation medium). The first polar body and MII plate were removed by aspiration with a 15-μm inner diameter glass pipette. The oocytes had been previously stained in the manipulation medium supplemented with 5 μg/ml Hoechst 33342 (Sigma) for 20 min and confirmation of successful enucleation was achieved by visualizing the cytoplast and removed cytoplasm under ultraviolet light. After enucleation, a donor cell was inserted into the perivitelline space of each enucleated oocyte using the same glass pipette. Cell-oocyte complexes were washed in TCM-199 supplemented with 10% FCS, transferred to the same medium and kept in a CO2 incubator adjusted to 5% CO2 in air at 38.5° C. until fusion.
# The chamber for fusion was a 100 mm dish filled with 15 ml of Zimmerman fusion medium, Zimmerman, et al., Electric field-induced cell-to-cell fusion. J Membr Biol 1982, 67: 165-182. Two stainless steel wires (100 μm diameter) were used as electrodes and they were attached to micromanipulators. The single cell-oocyte complex was sandwiched between the electrodes and oriented with the contact surface between the cytoplast and the donor cell perpendicular to the electrodes. The distance between the electrodes was about 100 μm. Membrane fusion was induced by applying a single direct current pulse of 250 V/mm for a duration of 20 μsec with a prepulse of alternating current field of 5 V, 1 MHz for 2 sec using an LF 101 Fusion Machine (TR Tech Co., Tokyo, Japan). Following the fusion pulse, the complexes were washed in G1.2 medium, Gandhi, et al., Substrate utilization in porcine embryos cultured in NCSU23 and G1.2/G2.2 sequential culture media, Mol Reprod Dev 2001, 58: 269-275 and cultured for a period of 1 h in 100 μl of the same medium. Fusion was then determined by microscopic examination.
# At 3 h after fusion, fused embryos were washed once in Zimmerman fusion medium and then placed between 2 wire electrodes (1 mm apart) of the fusion chamber slide with 15 ml of the medium. Direct current pulses of 75 V/mm were applied twice to the embryos for a duration of 60 μsec at intervals of 5 sec. Activated embryos were incubated in 100 μl of G1.2 medium supplemented with 7.5 μg/ml cytochalasin B for 2 h after activation to prevent extrusion of polar bodies, Miyoshi, et al. (2000) (supra), and then transferred into G1.2 medium. After culture in G 1.2 medium for 3 days, the embryos were transferred into 100 μl of G2.2 medium, Gandhi, et al., (2001) (supra), and continued to be cultured. The embryos were examined for cleavage and blastocyst formation at 2 and 7 days of culture, respectively. At the end of the culture period, all blastocysts were counted for nuclei after Hoechst staining. The blastocysts were placed on slides with a drop of mounting medium consisting of glycerol and PBS (9: 1) containing 0.1 mg/ml Hoechst 33342. A cover slip was placed on the top of the blastocysts and the edge was sealed with fingernail polish. The numbers of nuclei were counted under ultraviolet light. […]
# [4] = then 4 h additional culture without dbcAMP
# [5] = then 10 h additional culture without dbcAMP
# [6] = then 16 h additional culture without dbcAMP
# [7] = then 22 h additional culture without dbcAMP
# [8] = oocytes treated with 1 mM dbcAMP for 20 h, 42-h-matured, examined at 2 days of culture
# [9] = oocytes treated with 1 mM dbcAMP for 20 h, 42-h-matured, examined at 7 days of culture
# [10] = oocytes treated with 1 mM dbcAMP for 20 h, M II oocytes collected at 42 h of maturation
compound,measurement,setting,value
"CCCC(=O)Nc1ncnc2c1ncn2[C@@H]1O[C@@H]2COP(=O)(O)O[C@H]2[C@H]1OC(=O)CCC [dbcAMP, dibutyryl cyclic AMP]",No. of oocytes at the germinal vesicle stage,[1]; 16 h of culture,49
same,"oocytes at the germinal vesicle stage (%), percentage (mean ± SEM) of oocytes examined",[1]; 16 h of culture,77.8% and 77.8 ± 3.2%
same,No. of oocytes at the germinal vesicle stage,[1]; 20 h of culture,43
same,"oocytes at the germinal vesicle stage (%), percentage (mean ± SEM) of oocytes examined",[1]; 20 h of culture,72.9% and 72.9 ± 10.4%
same,No. of oocytes at the germinal vesicle stage,[1]; 24 h of culture,33
same,"oocytes at the germinal vesicle stage (%), percentage (mean ± SEM) of oocytes examined",[1]; 24 h of culture,54.1 ± 7.0%
same,No. of oocytes at the germinal vesicle stage,[1]; 42 h of culture,27
same,"oocytes at the germinal vesicle stage (%), percentage (mean ± SEM) of oocytes examined",[1]; 42 h of culture,44.3% and 44.3 ± 2.6%
same,effect of addition of dbcAMP on the percentage of GV oocytes versus absence,"[1]; at each culture period (16, 20, 24, 42 h), P<0.05",increased
same,effect of addition of dbcAMP on the percentage of M II oocytes versus absence,"[2]; at 10 h of additional culture, P<0.05",decreased
same,No. of oocytes at the metaphase II stage,[2]; [4],30
same,"oocytes at the metaphase II stage (%), percentage (mean ± SEM) of oocytes examined",[2]; [4],35.3% and 35.3 ± 9.2%
same,No. of oocytes at the metaphase II stage,[2]; [5],25
same,"oocytes at the metaphase II stage (%), percentage (mean ± SEM) of oocytes examined",[2]; [5],29.8% and 29.8 ± 1.4%
same,No. of oocytes at the metaphase II stage,[2]; [6],54
same,"oocytes at the metaphase II stage (%), percentage (mean ± SEM) of oocytes examined",[2]; [6],67.5% and 67.5 ± 8.4%
same,No. of oocytes at the metaphase II stage,[2]; [7],69
same,"oocytes at the metaphase II stage (%), percentage (mean ± SEM) of oocytes examined",[2]; [7],85.2 ± 5.0%
same,difference in mean numbers of cells in the blastocysts between presence and absence of dbcAMP treatment,[3]; 42-h-matured oocytes,no significant difference
same,"difference in percentages of fused cell-oocyte complexes, cleaved embryos and embryos developed to blastocysts between presence and absence of dbcAMP treatment",[3]; 42-h-matured oocytes,no significant differences
same,Mean no. ± SEM of cells in blastocysts,"[3]; oocytes treated with 1 mM dbcAMP for 20 h, 42-h-matured, blastocysts at end of culture",49.0 ± 7.0
same,No. of embryos developed to ≧2-cell,[3]; [8],48
same,"embryos developed to ≧2-cell (%), percentage (mean ± SEM) of complexes fused",[3]; [8],41.4 ± 8.3%
same,No. of embryos developed to Blastocyst,[3]; [9],2
same,"embryos developed to Blastocyst (%), percentage (mean ± SEM) of complexes fused",[3]; [9],1.7 ± 1.5%
same,No. of complexes fused,[3]; [10],116
same,"complexes fused (%), percentage (mean ± SEM) of complexes treated",[3]; [10],80.0 ± 4.5%
